# Values of other authors as cited in US8507466B2, “Oils enriched with diacylglycerols and phytosterol esters and unit dosage forms thereof for use in therapy” (Enzymotec Ltd., priority 2003, dated 2013).
# Key:
# LDL = conditions: incubation of LDL with copper ion
# [1] = test system: tumor cell growth (LNCaP and HT-29); conditions: compared to cholesterol
Structure (SMILES),elevation of LDL oxidation (LDL) [%],decrease in cell growth [1] [%],increase in apoptosis [1] [fold]
"CCCCC/C=C\C/C=C\CCCCCCCC(=O)O [linoleic acid (LA), linoleic acid]",22,,
CC[C@H](CC[C@@H](C)[C@H]1CC[C@H]2[C@@H]3CC=C4C[C@@H](O)CC[C@]4(C)[C@H]3CC[C@]12C)C(C)C [beta-sitosterol],,24,4
